What was measured:
[1] = test system: barnyardgrass; assay: Test A preemergence; format: in vivo, Echinochloa crus-galli
How it was run: (§1)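 Visual 0–100 rating (100 = complete control) taken about 10 d post-treatment relative to untreated checks. Preemergence: directed soil spray on sown loam/sand pots. Postemergence: seedlings 2–10 cm, 1–2 leaf. Non-phytotoxic solvent formulation with surfactant.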

[2] = test system: barnyardgrass; assay: Test B flooded paddy test; format: in vivo, Echinochloa crus-galli; details: Flood, 250 g ai/ha, 0 to 100 scale where 0 is no effect and 100 is complete control
How it was run: (§2)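 Visual ratings on a 0 to 100 scale, where 100 means complete control, compared treated plants with controls after 13 to 15 days in a greenhouse. Treatment went into paddy water 3 cm deep over the soil, applied to plants at the 2-leaf stage.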

[3] = test system: rice; assay: Test B flooded paddy test; format: in vivo, Oryza sativa; details: Flood, 250 g ai/ha, 0 to 100 scale where 0 is no effect and 100 is complete control
How it was run: as §2

[4] = test system: barnyardgrass; assay: Test A postemergence; format: in vivo, Echinochloa crus-galli
How it was run: as §1

[5] = test system: pigweed; assay: Test A postemergence; format: in vivo, Amaranthus retroflexus
How it was run: as §1

[6] = test system: large (Lg) crabgrass; assay: Test A preemergence; format: in vivo, Digitaria sanguinalis
How it was run: as §1

[7] = test system: sedge, umbrella; assay: Test B flooded paddy test; format: in vivo, Cyperus difformis; details: Flood, 250 g ai/ha, 0 to 100 scale where 0 is no effect and 100 is complete control
How it was run: as §2

[8] = test system: wild oat; assay: Test C postemergence; format: in vivo, Avena fatua; details: Avena fatua, post-emergence
Description: (§3) Seeds of plant species selected from blackgrass (Alopecurus myosuroides), Italian ryegrass (Lolium multiflorum), wheat, winter (winter wheat, Triticum aestivum), galium (catchweed bedstraw, Galium aparine), corn (Zea mays), large (Lg) crabgrass (Digitaria sanguinalis), giant foxtail (Setaria faberii), johnsongrass (Sorghum halepense), lambsquarters (Chenopodium album), morningglory (Ipomoea coccinea), yellow nutsedge (Cyperus esculentus), pigweed (Amaranthus retroflexus), ragweed (common ragweed, Ambrosia elatior), soybean (Glycine max), barnyardgrass (Echinochloa crus-galli), oilseed rape (Brassica napus), waterhemp (common waterhemp, Amaranthus rudis), kochia (Kochia scoparia), wild oat (Avena fatua), surinam grass (Brachiaria decumbens), foxtail, green (green foxtail, Setaria viridis), goosegrass (Eleusine indica), bromegrass, downy (downy bromegrass, Bromus tectorum), nightshade (eastern black nightshade, Solanum ptycanthum), cocklebur (common cocklebur, Xanthium strumarium), cupgrass, woolly (woolly cupgrass, Eriochloa villosa), bermudagrass (Cynodon dactylon), sunflower, (common oilseed sunflower, Helianthus annuus), Russian thistle (Salsola kali), and velvetleaf (Abutilon theophrasti) were planted into a blend of loam soil and sand and treated preemergence with test chemicals formulated in a non-phytotoxic solvent mixture which included a surfactant.
(§4) At the same time, plants selected from these crop and weed species and also barley, winter (winter barley, Hordeum vulgare), windgrass (Apera spica-venti), chickweed (common chickweed, Stellaria media), deadnettle (henbit deadnettle, Lamium amplexicaule), and canarygrass (littleseed canarygrass, Phalaris minor) were planted in pots containing Redi-Earth® planting medium (Scotts Company, 14111 Scottslawn Road, Marysville, Ohio 43041) comprising spaghnum peat moss, vermiculite, wetting agent and starter nutrients and treated with postemergence applications of test chemicals formulated in the same manner. Plants ranged in height from 2 to 18 cm (1- to 4-leaf stage) for postemergence treatments. Treated plants and controls were maintained in a greenhouse for 13 to 15 days, after which time all species were compared to controls and visually evaluated. Plant response ratings, summarized in Table C, are based on a scale of 0 to 100 where 0 is no effect and 100 is complete control. A dash (-) response means no test result.

[9] = test system: large (Lg) crabgrass; assay: Test C postemergence; format: in vivo, Digitaria sanguinalis; details: Digitaria sanguinalis, post-emergence
Description: as §3, §4

[10] = test system: morningglory; assay: Test C postemergence; format: in vivo, Ipomoea coccinea; details: Ipomoea, post-emergence
Description: as §3, §4

[11] = test system: lambsquarters; assay: Test C postemergence; format: in vivo, Chenopodium album; details: Chenopodium album, post-emergence
Description: as §3, §4

[12] = test system: giant foxtail; assay: Test C postemergence; format: in vivo, Setaria faberii; details: Setaria faberi, post-emergence
Description: as §3, §4

[13] = test system: chickweed; assay: Test C postemergence; format: in vivo, Stellaria media; details: Stellaria media, post-emergence
Description: as §3, §4

[14] = test system: yellow nutsedge; assay: Test C postemergence; format: in vivo, Cyperus esculentus; details: Cyperus, post-emergence
Description: as §3, §4

[15] = 125 g ai/ha, 0 to 100 scale where 0 is no effect and 100 is complete control
[16] = 500 g ai/ha, 0 to 100 scale where 0 is no effect and 100 is complete control
[17] = 125 g ai/ha, 0 to 100 scale, 0 no effect, 100 complete control

FC(F)c1cccc(Oc2ncc(Cl)cn2)c1-n1cc(C(F)(F)F)cn1 [Compound 170]
Plant response rating, Barnyardgrass [1, 15]: 90
Barnyardgrass plant response rating [1, 16]: 100
Plant response rating, Barnyardgrass [2]: 70
Plant response rating, Rice [3]: 50
Barnyardgrass plant response rating [4, 15]: 70
Plant response rating, Barnyardgrass [4, 16]: 90
Pigweed plant response rating [5, 15]: 100
Plant response rating, Pigweed [5, 16]: 100
Plant response rating, Crabgrass, Large [6, 15]: 100
Crabgrass, Large plant response rating [6, 16]: 100
Plant response rating, Sedge, Umbrella [7]: 90

Clc1cnn(-c2ccccc2Oc2ncc(Br)cn2)c1 [Compound 5, 5-bromo-2-[2-(4-chloro-1H-pyrazol-1-yl)phenoxy]pyrimidine]
pest or weed control at 125 g/ha ([8]; 125 g ai/ha, postemergence, read-out: Plant response rating (0 to 100), Oat, Wild): 10%
pest or weed control at 250 g/ha ([8]; 250 g ai/ha, postemergence, read-out: Plant response rating (0 to 100), Oat, Wild): 30%
pest or weed control at 31 g/ha ([8]; Postemergence, 31 g ai/ha, scale 0 to 100 (0 no effect, 100 complete control), 13 to 15 days, read-out: Plant response rating, Oat, Wild): 0%
pest or weed control at 62 g/ha ([8]; Postemergence, 62 g ai/ha, scale 0 to 100 (0 no effect, 100 complete control), read-out: Plant response rating, Oat, Wild): 5%
pest or weed control at 125 g/ha ([1]; Echinochloa crus-galli, pre-emergence, 240 h, 125 g ai/ha, 0 to 100 scale where 0 is no effect and 100 is complete control, read-out: Barnyardgrass plant response rating): 10%
pest or weed control at 500 g/ha ([1]; Echinochloa crus-galli, pre-emergence, 240 h, 500 g ai/ha, 0 to 100 scale, 0 no effect, 100 complete control, approx. 10 days, read-out: Barnyardgrass plant response rating): 80%
pest or weed control at 125 g/ha ([9]; 125 g ai/ha, postemergence, read-out: Plant response rating (0 to 100), Crabgrass, Large): 20%
pest or weed control at 250 g/ha ([9]; 250 g ai/ha, postemergence, read-out: Plant response rating (0 to 100), Crabgrass, Large): 20%
pest or weed control at 31 g/ha ([9]; Postemergence, 31 g ai/ha, scale 0 to 100 (0 no effect, 100 complete control), 13 to 15 days, read-out: Plant response rating, Crabgrass, Large): 5%
pest or weed control at 62 g/ha ([9]; Postemergence, 62 g ai/ha, scale 0 to 100 (0 no effect, 100 complete control), read-out: Plant response rating, Crabgrass, Large): 15%
pest or weed control at 250 g/ha ([2]; Echinochloa crus-galli, read-out: Plant response rating, Barnyardgrass): 0%
pest or weed control at 125 g/ha ([10]; 125 g ai/ha, postemergence, read-out: Plant response rating (0 to 100), Morningglory): 60%
pest or weed control at 250 g/ha ([10]; 250 g ai/ha, postemergence, read-out: Plant response rating (0 to 100), Morningglory): 90%
pest or weed control at 31 g/ha ([10]; Postemergence, 31 g ai/ha, scale 0 to 100 (0 no effect, 100 complete control), 13 to 15 days, read-out: Plant response rating, Morningglory): 40%
pest or weed control at 62 g/ha ([10]; Postemergence, 62 g ai/ha, scale 0 to 100 (0 no effect, 100 complete control), read-out: Plant response rating, Morningglory): 60%
plant injury at 250 g/ha ([3]; Oryza sativa, read-out: Plant response rating, Rice): 10%
pest or weed control at 125 g/ha ([11]; 125 g ai/ha, postemergence, read-out: Plant response rating (0 to 100), Lambsquarters): 98%
pest or weed control at 250 g/ha ([11]; 250 g ai/ha, postemergence, read-out: Plant response rating (0 to 100), Lambsquarters): 98%
pest or weed control at 31 g/ha ([11]; Postemergence, 31 g ai/ha, scale 0 to 100 (0 no effect, 100 complete control), 13 to 15 days, read-out: Plant response rating, Lambsquarters): 80%
pest or weed control at 62 g/ha ([11]; Postemergence, 62 g ai/ha, scale 0 to 100 (0 no effect, 100 complete control), read-out: Plant response rating, Lambsquarters): 95%
pest or weed control at 125 g/ha ([12]; 125 g ai/ha, postemergence, read-out: Plant response rating (0 to 100), Foxtail, Giant): 5%
pest or weed control at 250 g/ha ([12]; 250 g ai/ha, postemergence, read-out: Plant response rating (0 to 100), Foxtail, Giant): 10%
pest or weed control at 31 g/ha ([12]; Postemergence, 31 g ai/ha, scale 0 to 100 (0 no effect, 100 complete control), 13 to 15 days, read-out: Plant response rating, Foxtail, Giant): 5%
pest or weed control at 62 g/ha ([12]; Postemergence, 62 g ai/ha, scale 0 to 100 (0 no effect, 100 complete control), read-out: Plant response rating, Foxtail, Giant): 5%
pest or weed control at 250 g/ha ([13]; 250 g ai/ha, postemergence, read-out: Plant response rating (0 to 100), Chickweed): 45%
pest or weed control at 31 g/ha ([13]; Postemergence, 31 g ai/ha, scale 0 to 100 (0 no effect, 100 complete control), 13 to 15 days, read-out: Plant response rating, Chickweed): 5%
pest or weed control at 62 g/ha ([13]; Postemergence, 62 g ai/ha, scale 0 to 100 (0 no effect, 100 complete control), read-out: Plant response rating, Chickweed): 15%
pest or weed control at 125 g/ha ([4]; Echinochloa crus-galli, post-emergence, 240 h, 125 g ai/ha, 0 to 100 scale where 0 is no effect and 100 is complete control, read-out: Plant response rating, Barnyardgrass): 10%
pest or weed control at 500 g/ha ([4]; Echinochloa crus-galli, post-emergence, 240 h, 500 g ai/ha, 0 to 100 scale, 0 no effect, 100 complete control, read-out: Plant response rating Barnyardgrass): 60%
pest or weed control at 125 g/ha ([5]; Amaranthus retroflexus, post-emergence, 125 g ai/ha, 0 to 100 scale where 0 is no effect and 100 is complete control, read-out: Plant response rating, Pigweed): 100%
pest or weed control at 500 g/ha ([5]; Amaranthus retroflexus, post-emergence, 240 h, 500 g ai/ha, 0 to 100 scale, 0 no effect, 100 complete control, read-out: Plant response rating Pigweed): 100%
pest or weed control at 125 g/ha ([6]; Digitaria sanguinalis, pre-emergence, 240 h, 125 g ai/ha, 0 to 100 scale where 0 is no effect and 100 is complete control, read-out: Crabgrass, Large plant response rating): 90%
pest or weed control at 500 g/ha ([6]; Digitaria sanguinalis, pre-emergence, 240 h, 500 g ai/ha, 0 to 100 scale, 0 no effect, 100 complete control, approx. 10 days, read-out: Crabgrass, Large plant response rating): 90%
pest or weed control at 125 g/ha ([14]; 125 g ai/ha, postemergence, read-out: Plant response rating (0 to 100), Nutsedge, Yellow): 15%
pest or weed control at 250 g/ha ([14]; 250 g ai/ha, postemergence, read-out: Plant response rating (0 to 100), Nutsedge, Yellow): 15%
pest or weed control at 31 g/ha ([14]; Postemergence, 31 g ai/ha, scale 0 to 100 (0 no effect, 100 complete control), 13 to 15 days, read-out: Plant response rating, Nutsedge, Yellow): 5%
pest or weed control at 62 g/ha ([14]; Postemergence, 62 g ai/ha, scale 0 to 100 (0 no effect, 100 complete control), read-out: Plant response rating, Nutsedge, Yellow): 5%
pest or weed control at 250 g/ha ([7]; Cyperus difformis, read-out: Plant response rating, Sedge, Umbrella): 50%

NC(=S)c1cccc(Oc2ncc(Cl)cn2)c1-n1cc(Cl)cn1 [Compound 292]
Barnyardgrass plant response rating (0 to 100 scale, 0 is no effect, 100 is complete control) ([1]; 125 g ai/ha): 80
Barnyardgrass plant response rating [1, 16]: 100
Plant response rating, Barnyardgrass [2]: 20
Plant response rating, Rice [3]: 20
Plant response rating, Barnyardgrass [4, 17]: 60
Plant response rating, Barnyardgrass [4, 16]: 90
Plant response rating, Pigweed [5, 17]: 100
Plant response rating, Pigweed [5, 16]: 100
Crabgrass, Large plant response rating (0 to 100 scale) ([6]; 125 g ai/ha): 100
Crabgrass, Large plant response rating [6, 16]: 100
Plant response rating, Sedge, Umbrella [7]: 75

N#Cc1cnn(-c2c(C#N)cccc2Oc2ncc(Br)cn2)c1 [Compound 135]
Plant response rating, Barnyardgrass [1, 15]: 40
Barnyardgrass plant response rating [1, 16]: 90
Plant response rating, Barnyardgrass [2]: 30
Plant response rating, Rice [3]: 0
Barnyardgrass plant response rating [4, 15]: 40
Plant response rating, Barnyardgrass [4, 16]: 100
Pigweed plant response rating [5, 15]: 70
Plant response rating, Pigweed [5, 16]: 100
Plant response rating, Sedge, Umbrella [7]: 75

— US9695155B2, “Herbicidal substituted pyrimidinyloxy benzene compounds” (E. I. DU PONT DE NEMOURS AND COMPANY, priority 2013, dated 2017)
